Results published in PubChem BioAssay AID248 (DTP/NCI, 2004).
Inconclusive results and toxic doses are left out. Rule as the data show it: active = T/C of 150% or more; inactive = T/C below 125%.

Test system: L1210 leukemia ip in BDF1 mice, survival T/C
Test: NCI In Vivo Anticancer Drug Screen. Data for tumor model L1210 Leukemia (intraperitoneal) in B6D2F1 (BDF1) mice
Conditions: endpoint: mean survival time, higher = longer survival
How it was run: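 Ratio derived from survival: compound-dosed mice over vehicle-dosed mice, all bearing a transplantable tumor.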

[1] = dose: 100.0 mg/kg/injection, schedule: Q01DX009 (ip), vehicle: saline with Tween-80
[2] = dose: 200.0 mg/kg/injection, schedule: Q01DX009 (ip), vehicle: saline with Tween-80
[3] = dose: 50.0 mg/kg/injection, schedule: Q01DX009 (ip), vehicle: saline with Tween-80

Measured: T/C

Nc1ccc2ncsc2c1
inactive: [1] 114 % of control | dose: 100.0 mg/kg/injection, schedule: Q04DX003 (ip), vehicle: saline with Tween-80 102 % of control | [2] 88 % of control | dose: 200.0 mg/kg/injection, schedule: Q04DX003 (ip), vehicle: saline with Tween-80 95 % of control | dose: 400.0 mg/kg/injection, schedule: Q04DX003 (ip), vehicle: saline with Tween-80 98 % of control

CCOP(=S)(N/N=C1/CCCC(C)C1)OCC (configuration not stated)
inactive: dose: 100.0 mg/kg/injection, schedule: Q01DX001 (ip), vehicle: carboxymethylcellulose (CMC) 93 % of control | dose: 200.0 mg/kg/injection, schedule: Q01DX001 (ip), vehicle: carboxymethylcellulose (CMC) 93 % of control | dose: 400.0 mg/kg/injection, schedule: Q01DX001 (ip), vehicle: carboxymethylcellulose (CMC) 97 % of control

NC(=S)N=Nc1c(O)[nH]c(=O)[nH]c1=O
inactive: dose: 12.5 mg/kg/injection, schedule: Q01DX009 (ip), vehicle: saline with Tween-80 98 % of control | dose: 12.5 mg/kg/injection, schedule: Q04DX003 (ip), vehicle: saline with Tween-80 97 % of control | dose: 25.0 mg/kg/injection, schedule: Q01DX009 (ip), vehicle: saline with Tween-80 104 % of control | dose: 25.0 mg/kg/injection, schedule: Q04DX003 (ip), vehicle: saline with Tween-80 92 % of control | [3] 104 % of control | dose: 50.0 mg/kg/injection, schedule: Q04DX003 (ip), vehicle: saline with Tween-80 96 % of control

S=c1ncn(-c2ccccc2)[nH]1
inactive: [3] 103 % of control | [1] 95 % of control | [2] 95 % of control
